Source: PubChem BioAssay (NCI)
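The compound was tested at five concentrations on cells cultured in 96-well plates, with a 48-hour exposure period. GI50 marks 50% less growth. TGI denotes the concentration required for complete inhibition of growth.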

How the values were obtained:
Assay in all cases: NCI tumour cell line growth inhibition, 48 h
786-0 renal = tested on: 786-0 renal
A498 renal = tested on: A498 renal
A549 NSCLC = tested on: A549 NSCLC
ACHN renal = tested on: ACHN renal
BT-549 breast = tested on: BT-549 breast
CAKI-1 renal = tested on: CAKI-1 renal
CCRF-CEM leukemia = tested on: CCRF-CEM leukemia
COLO 205 colon = tested on: COLO 205 colon
DU-145 prostate = tested on: DU-145 prostate
EKVX NSCLC = tested on: EKVX NSCLC
HCC-2998 colon = tested on: HCC-2998 colon
HCT-116 colon = tested on: HCT-116 colon
HCT-15 colon = tested on: HCT-15 colon
HL-60(TB) leukemia = tested on: HL-60(TB) leukemia
HOP-62 NSCLC = tested on: HOP-62 NSCLC
HOP-92 NSCLC = tested on: HOP-92 NSCLC
HS 578T breast = tested on: HS 578T breast
HT29 colon = tested on: HT29 colon
IGROV1 ovarian = tested on: IGROV1 ovarian
K-562 leukemia = tested on: K-562 leukemia
KM12 colon = tested on: KM12 colon
LOX IMVI melanoma = tested on: LOX IMVI melanoma
M14 melanoma = tested on: M14 melanoma
MALME-3M melanoma = tested on: MALME-3M melanoma
MCF7 breast = tested on: MCF7 breast
MDA-MB-231 breast = tested on: MDA-MB-231 breast
MDA-MB-435 = tested on: MDA-MB-435
MOLT-4 leukemia = tested on: MOLT-4 leukemia
NCI-H226 lung = tested on: NCI-H226 lung
NCI-H460 lung = tested on: NCI-H460 lung
NCI-H522 lung = tested on: NCI-H522 lung
NCI/ADR-RES ovarian = tested on: NCI/ADR-RES ovarian
OVCAR-3 ovarian = tested on: OVCAR-3 ovarian
OVCAR-4 ovarian = tested on: OVCAR-4 ovarian
OVCAR-5 ovarian = tested on: OVCAR-5 ovarian
OVCAR-8 ovarian = tested on: OVCAR-8 ovarian
PC-3 prostate = tested on: PC-3 prostate
RPMI-8226 leukemia = tested on: RPMI-8226 leukemia
RXF 393 renal = tested on: RXF 393 renal
SF-268 CNS = tested on: SF-268 CNS
SF-295 CNS = tested on: SF-295 CNS
SF-539 CNS = tested on: SF-539 CNS
SK-MEL-2 melanoma = tested on: SK-MEL-2 melanoma
SK-MEL-28 melanoma = tested on: SK-MEL-28 melanoma
SK-MEL-5 melanoma = tested on: SK-MEL-5 melanoma
SK-OV-3 ovarian = tested on: SK-OV-3 ovarian
SN12C renal = tested on: SN12C renal
SNB-19 CNS = tested on: SNB-19 CNS
SNB-75 CNS = tested on: SNB-75 CNS
SR leukemia = tested on: SR leukemia
SW-620 colon = tested on: SW-620 colon
T-47D breast = tested on: T-47D breast
TK-10 renal = tested on: TK-10 renal
U251 CNS = tested on: U251 CNS
UACC-257 melanoma = tested on: UACC-257 melanoma
UACC-62 melanoma = tested on: UACC-62 melanoma
UO-31 renal = tested on: UO-31 renal

Molecule `CN(C)CCCOc1c2ccc(Cl)cc2nc2c1oc1ccccc12` has a GI50 (786-0 renal) of 1.78 µM, a TGI (786-0 renal) of 11.2 µM and a GI50 (A498 renal) of 3.14 µM. The TGI (A498 renal) was 8.92 µM, the GI50 (A549 NSCLC) was 1.55 µM and the TGI (A549 NSCLC) was 11.2 µM. For the same molecule, the GI50 (ACHN renal) was 0.623 µM, the TGI (ACHN renal) was 12.5 µM and the GI50 (BT-549 breast) was 2.08 µM. It also gave a TGI (BT-549 breast) of 7.23 µM, a GI50 (CAKI-1 renal) of 0.888 µM and a TGI (CAKI-1 renal) of 10.4 µM. It also gave a GI50 (CCRF-CEM leukemia) of 2.1 µM, a TGI (CCRF-CEM leukemia) of 11.1 µM and a GI50 (COLO 205 colon) of 1.08 µM. It also gave a TGI (COLO 205 colon) of 2.52 µM, a GI50 (DU-145 prostate) of 2.26 µM and a TGI (DU-145 prostate) of 14 µM. The GI50 (EKVX NSCLC) was 2.64 µM, the TGI (EKVX NSCLC) was 10.3 µM and the GI50 (HCC-2998 colon) was 1.03 µM. It also gave a TGI (HCC-2998 colon) of 2.53 µM, a GI50 (HCT-116 colon) of 0.437 µM and a TGI (HCT-116 colon) of 10.1 µM. The GI50 (HCT-15 colon) was 1.07 µM, the TGI (HCT-15 colon) was 10.1 µM and the GI50 (HL-60(TB) leukemia) was 1.83 µM. The TGI (HL-60(TB) leukemia) was 5.88 µM, the GI50 (HOP-62 NSCLC) was 2.09 µM and the TGI (HOP-62 NSCLC) was 11.6 µM. It also gave a GI50 (HOP-92 NSCLC) of 0.584 µM, a TGI (HOP-92 NSCLC) of 3.59 µM and a GI50 (HS 578T breast) of 2.15 µM. The TGI (HS 578T breast) was 10.1 µM, the GI50 (HT29 colon) was 0.713 µM and the TGI (HT29 colon) was 3 µM. It also gave a GI50 (IGROV1 ovarian) of 2.14 µM, a TGI (IGROV1 ovarian) of 12 µM and a GI50 (K-562 leukemia) of 0.62 µM. It also gave a TGI (K-562 leukemia) of 13.9 µM, a GI50 (KM12 colon) of 1.87 µM and a TGI (KM12 colon) of 11.9 µM. The GI50 (LOX IMVI melanoma) was 0.516 µM, the TGI (LOX IMVI melanoma) was 1.83 µM and the GI50 (M14 melanoma) was 1.5 µM. The TGI (M14 melanoma) was 3.13 µM, the GI50 (MALME-3M melanoma) was 1.73 µM and the TGI (MALME-3M melanoma) was 3.82 µM. The GI50 (MCF7 breast) was 1.17 µM, the TGI (MCF7 breast) was 5.48 µM and the GI50 (MDA-MB-231 breast) was 1.8 µM. It also gave a TGI (MDA-MB-231 breast) of 8.49 µM, a GI50 (MDA-MB-435) of 1.55 µM and a TGI (MDA-MB-435) of 3.09 µM. It also gave a GI50 (MOLT-4 leukemia) of 0.497 µM, a TGI (MOLT-4 leukemia) of 10.5 µM and a GI50 (NCI-H226 lung) of 2.14 µM. It also gave a TGI (NCI-H226 lung) of 6.77 µM, a GI50 (NCI-H460 lung) of 0.557 µM and a TGI (NCI-H460 lung) of 10.2 µM. It also gave a GI50 (NCI-H522 lung) of 1.57 µM, a TGI (NCI-H522 lung) of 4.61 µM and a GI50 (NCI/ADR-RES ovarian) of 0.677 µM. For the same molecule, the TGI (NCI/ADR-RES ovarian) was 6.65 µM, the GI50 (OVCAR-3 ovarian) was 2.62 µM and the TGI (OVCAR-3 ovarian) was 12.7 µM. The GI50 (OVCAR-4 ovarian) was 1.75 µM, the TGI (OVCAR-4 ovarian) was 7.31 µM and the GI50 (OVCAR-5 ovarian) was 2.09 µM. For the same molecule, the TGI (OVCAR-5 ovarian) was 8.04 µM, the GI50 (OVCAR-8 ovarian) was 1.37 µM and the TGI (OVCAR-8 ovarian) was 10.9 µM. It also gave a GI50 (PC-3 prostate) of 1.71 µM, a TGI (PC-3 prostate) of 5.41 µM and a GI50 (RPMI-8226 leukemia) of 2.07 µM. For the same molecule, the TGI (RPMI-8226 leukemia) was 7.52 µM, the GI50 (RXF 393 renal) was 1.37 µM and the TGI (RXF 393 renal) was 3.71 µM. It also gave a GI50 (SF-268 CNS) of 1.62 µM, a TGI (SF-268 CNS) of 11.2 µM and a GI50 (SF-295 CNS) of 2.18 µM. It also gave a TGI (SF-295 CNS) of 10.8 µM, a GI50 (SF-539 CNS) of 1.43 µM and a TGI (SF-539 CNS) of 2.84 µM. For the same molecule, the GI50 (SK-MEL-2 melanoma) was 1.86 µM, the TGI (SK-MEL-2 melanoma) was 3.53 µM and the GI50 (SK-MEL-28 melanoma) was 1.81 µM. It also gave a TGI (SK-MEL-28 melanoma) of 3.43 µM, a GI50 (SK-MEL-5 melanoma) of 1.78 µM and a TGI (SK-MEL-5 melanoma) of 3.21 µM. The GI50 (SK-OV-3 ovarian) was 2.42 µM, the TGI (SK-OV-3 ovarian) was 9.55 µM and the GI50 (SN12C renal) was 1.02 µM. The TGI (SN12C renal) was 11.2 µM, the GI50 (SNB-19 CNS) was 2.37 µM and the TGI (SNB-19 CNS) was 11.9 µM. The GI50 (SNB-75 CNS) was 1.48 µM, the TGI (SNB-75 CNS) was 2.85 µM and the GI50 (SR leukemia) was 0.697 µM. The TGI (SR leukemia) was 6.72 µM, the GI50 (SW-620 colon) was 0.535 µM and the TGI (SW-620 colon) was 8.31 µM. The GI50 (T-47D breast) was 2.64 µM, the TGI (T-47D breast) was 9.87 µM and the GI50 (TK-10 renal) was 2.96 µM. It also gave a TGI (TK-10 renal) of 7.62 µM, a GI50 (U251 CNS) of 1.66 µM and a TGI (U251 CNS) of 10.7 µM. For the same molecule, the GI50 (UACC-257 melanoma) was 1.85 µM, the TGI (UACC-257 melanoma) was 3.79 µM and the GI50 (UACC-62 melanoma) was 1.75 µM. For the same molecule, the TGI (UACC-62 melanoma) was 3.61 µM, the GI50 (UO-31 renal) was 0.553 µM and the TGI (UO-31 renal) was 3.37 µM.
